Experimental data from ChEMBL document CHEMBL4304832, “Novel Pyrazole-Containing Compounds Active against Mycobacterium tuberculosis” (ACS Med Chem Lett, 2019).
Values after ≈ are worked out from the molar mass of the structure shown.

How the values were obtained:
[1] = Cytotoxicity against human HepG2 cells incubated for 48 hrs by CellTiter Glo assay; format: cell-based
[2] = tested on: Mycobacterium tuberculosis; assay: Antitubercular activity against Mycobacterium tuberculosis H37Rv incubated for 6 days by resazurin dye based fluorescence assay; format: functional; conditions: 144 h
[3] = Protection Index, ratio of CC50 for human HepG2 cells to MIC for Mycobacterium tuberculosis H37Rv; format: toxicity; conditions: read-out: PI

SMILES | CC50 at 48 h [1] [µM] | MIC [2] [µM] | selectivity ratio [3]
COC1CCCN(Cc2cc(-c3ccc(C(C)C)cc3)n(-c3ccc(F)cc3)n2)C1 (configuration not stated) | 32 | 2.4 (≈ 0.978 µg/mL) | 13
CC(C)c1ccc(-c2cc(CN3CCOCC3)nn2-c2ccc(F)cc2)cc1 | 50.1 | 5 (≈ 1.9 µg/mL) | 10
CC(C)c1ccc(-c2cc(CN3CCC(O)CC3)nn2-c2ccc(F)cc2)cc1 | 20 | 10 (≈ 3.94 µg/mL) | 2
Cc1cc(CN2CCOCC2)nn1C1CCCCC1 | 50 | 2.5 (≈ 0.658 µg/mL) | 20
CC(C)c1ccc(-c2cc(CN3CCN(C(=O)OC(C)(C)C)CC3)nn2C2CCCCC2)cc1 | 40 | 1 (≈ 0.467 µg/mL) | 40
Fc1ccc(-n2nc(CN3CCOCC3)cc2-c2ccc(C(F)(F)F)cc2)cc1 | 100 | 20 (≈ 8.11 µg/mL) | 5
CC(C)c1ccc(-c2cc(CN3CCC(O)CC3)nn2C2CCCCC2)cc1 | 63 | 42 (≈ 16 µg/mL) | 1.5
COC1CCN(Cc2cc(-c3ccc(C(C)C)cc3)n(C3CCCCC3)n2)CC1 | 12.6 | 0.6 (≈ 0.237 µg/mL) | 21
CC(C)c1ccc(-c2cc(CN3CCCC(O)C3)nn2-c2ccc(F)cc2)cc1 (configuration not stated) | 25.1 | 20 (≈ 7.87 µg/mL) | 1.25
CC(C)c1ccc(-c2cc(CN3CCN(C)CC3)nn2C2CCCCC2)cc1 | 10 | 21 (≈ 7.99 µg/mL) | 0.5
CC(C)c1ccc(-c2cc(CN3CCOCC3)nn2C2CCCOC2)cc1 (configuration not stated) | > 100 | 2 (≈ 0.739 µg/mL) | > 50
Cc1c(CN2CCOCC2)nc(-c2ccc(C(C)C)cc2)n1-c1ccc(F)cc1 | 50.1 | 40 (≈ 15.7 µg/mL) | 1.25
CC(C)c1ccc(-c2cc(CN3CCCC(O)C3)nn2C(C)C)cc1 (configuration not stated) | 50 | 1 (≈ 0.341 µg/mL) | 50
CC(C)c1ccc(-c2cc(CN3CCSCC3)nn2C2CCCCC2)cc1 | 40 | 1.3 (≈ 0.499 µg/mL) | 31
COC1CCCN(Cc2cc(-c3ccc(C(C)C)cc3)n(C3CCCCC3)n2)C1 (configuration not stated) | 20 | 2.5 (≈ 0.989 µg/mL) | 8
Cc1c(CN2CCOCC2)nn(-c2ccc(C(C)C)cc2)c1-c1ccc(F)cc1 | > 100 | 50 (≈ 19.7 µg/mL) | > 2
CC(C)c1ccc(-c2cc(CN3CCOCC3)nn2C(C)C)cc1 | 79.4 | 1.75 (≈ 0.573 µg/mL) | 45
COC1CCN(Cc2cc(C)n(C3CCCCC3)n2)CC1 | > 100 | 50 (≈ 14.6 µg/mL) | > 2
COC1CCN(Cc2cc(-c3ccc(C)nc3)n(C3CCCCC3)n2)CC1 | > 100 | 50 (≈ 18.4 µg/mL) | > 2
COC1CCN(Cc2nn(-c3ccc(C(C)C)cc3)c(-c3ccc(F)cc3)c2C)CC1 |  | 50 (≈ 21.1 µg/mL) | 
Cc1ccc(-c2cc(CN3CCOCC3)nn2C2CCCCC2)cn1 | > 100 | 50 (≈ 17 µg/mL) | > 2
CC(C)c1ccc(-c2cc(CN3CCNCC3)nn2C2CCCCC2)cc1 |  | 20 (≈ 7.33 µg/mL) | 
Fc1ccc(-n2nc(CN3CCSCC3)cc2-c2ccc(C(F)(F)F)cc2)cc1 | 79.4 | 4.7 (≈ 1.98 µg/mL) | 17
COC1CCN(Cc2cc(-c3ccc(C(C)C)cc3)n(C3CCCOC3)n2)CC1 (configuration not stated) | 50 | 2.5 (≈ 0.994 µg/mL) | 20
CC(C)c1ccc(-c2cc(CN3CCN(C(=O)OC(C)(C)C)CC3)nn2-c2ccc(F)cc2)cc1 | 80 | 2 (≈ 0.957 µg/mL) | 40
COC1CCN(Cc2nc(-c3ccc(C(C)C)cc3)n(-c3ccc(F)cc3)c2C)CC1 |  | 40 (≈ 16.9 µg/mL) | 
CC(C)c1ccc(-c2cc(CN3CCN(C)CC3)nn2-c2ccc(F)cc2)cc1 | 12.6 | 20 (≈ 7.85 µg/mL) | 0.6
COC1CCN(Cc2cc(-c3ccc(C(C)C)cc3)n(C(C)C)n2)CC1 |  | 50 (≈ 17.8 µg/mL) | 
NNC(=O)c1ccncc1 [ISONIAZID] |  | 1.8 (≈ 0.247 µg/mL) | 
